Source: patent publication US8541418B2, “Inhibitors of polo-like kinase” (Elan Pharmaceutical, Inc., priority 2009, dated 2013)
pIC50: −log10 of the molar value.

What was measured:
Assay type in all cases: biochemical
PLK3 = PLK3 (Homo sapiens, UniProt Q9H4B4); test: PLK TR-FRET peptide assay, PLK3; settings: GST-PLK3, 15 min reaction, read-out: Plk3 IC50
PLK2 = PLK2 (Homo sapiens, UniProt Q9NYY3); test: PLK TR-FRET peptide assay, PLK2; settings: PLK TR-FRET peptide assay, GST-PLK2, 60 min reaction; read-out: Plk2 IC50
PLK1 = PLK1 (Homo sapiens, UniProt P53350); test: PLK TR-FRET peptide assay, PLK1; settings: GST-PLK1, 60 min reaction
Sequence of PLK1 (P53350 whole entry): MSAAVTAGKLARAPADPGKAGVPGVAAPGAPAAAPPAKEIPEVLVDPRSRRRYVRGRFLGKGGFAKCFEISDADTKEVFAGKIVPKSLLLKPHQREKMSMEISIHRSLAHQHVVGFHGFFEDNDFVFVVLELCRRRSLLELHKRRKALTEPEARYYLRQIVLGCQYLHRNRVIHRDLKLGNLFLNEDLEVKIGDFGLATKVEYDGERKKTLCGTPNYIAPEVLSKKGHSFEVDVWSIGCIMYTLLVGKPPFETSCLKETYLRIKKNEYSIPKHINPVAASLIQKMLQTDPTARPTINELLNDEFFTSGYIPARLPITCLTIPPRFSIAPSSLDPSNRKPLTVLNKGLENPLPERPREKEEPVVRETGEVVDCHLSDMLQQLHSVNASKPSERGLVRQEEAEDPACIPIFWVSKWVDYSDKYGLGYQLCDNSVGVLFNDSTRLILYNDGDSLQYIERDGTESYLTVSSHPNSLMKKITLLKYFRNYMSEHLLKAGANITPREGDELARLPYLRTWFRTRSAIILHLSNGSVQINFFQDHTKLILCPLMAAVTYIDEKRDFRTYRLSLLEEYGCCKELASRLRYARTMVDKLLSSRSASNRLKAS

Sequence of PLK3 (Q9H4B4 whole entry): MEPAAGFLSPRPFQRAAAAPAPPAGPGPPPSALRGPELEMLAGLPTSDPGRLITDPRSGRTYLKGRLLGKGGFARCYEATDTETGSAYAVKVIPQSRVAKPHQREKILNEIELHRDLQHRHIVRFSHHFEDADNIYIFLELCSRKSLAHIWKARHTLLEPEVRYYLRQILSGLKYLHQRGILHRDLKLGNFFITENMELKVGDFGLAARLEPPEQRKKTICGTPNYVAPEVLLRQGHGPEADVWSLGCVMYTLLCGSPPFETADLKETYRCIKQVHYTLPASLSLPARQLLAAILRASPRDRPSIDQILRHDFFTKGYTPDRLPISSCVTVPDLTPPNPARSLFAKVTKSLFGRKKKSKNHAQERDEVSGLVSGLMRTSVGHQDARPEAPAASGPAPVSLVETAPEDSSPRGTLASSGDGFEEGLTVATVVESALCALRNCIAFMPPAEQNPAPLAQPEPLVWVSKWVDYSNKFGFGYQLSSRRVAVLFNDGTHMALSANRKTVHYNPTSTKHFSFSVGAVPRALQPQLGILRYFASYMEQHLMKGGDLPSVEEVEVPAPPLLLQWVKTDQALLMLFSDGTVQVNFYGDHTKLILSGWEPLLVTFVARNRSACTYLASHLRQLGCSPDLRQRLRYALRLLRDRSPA
Sequence of PLK2 (Q9NYY3 whole entry): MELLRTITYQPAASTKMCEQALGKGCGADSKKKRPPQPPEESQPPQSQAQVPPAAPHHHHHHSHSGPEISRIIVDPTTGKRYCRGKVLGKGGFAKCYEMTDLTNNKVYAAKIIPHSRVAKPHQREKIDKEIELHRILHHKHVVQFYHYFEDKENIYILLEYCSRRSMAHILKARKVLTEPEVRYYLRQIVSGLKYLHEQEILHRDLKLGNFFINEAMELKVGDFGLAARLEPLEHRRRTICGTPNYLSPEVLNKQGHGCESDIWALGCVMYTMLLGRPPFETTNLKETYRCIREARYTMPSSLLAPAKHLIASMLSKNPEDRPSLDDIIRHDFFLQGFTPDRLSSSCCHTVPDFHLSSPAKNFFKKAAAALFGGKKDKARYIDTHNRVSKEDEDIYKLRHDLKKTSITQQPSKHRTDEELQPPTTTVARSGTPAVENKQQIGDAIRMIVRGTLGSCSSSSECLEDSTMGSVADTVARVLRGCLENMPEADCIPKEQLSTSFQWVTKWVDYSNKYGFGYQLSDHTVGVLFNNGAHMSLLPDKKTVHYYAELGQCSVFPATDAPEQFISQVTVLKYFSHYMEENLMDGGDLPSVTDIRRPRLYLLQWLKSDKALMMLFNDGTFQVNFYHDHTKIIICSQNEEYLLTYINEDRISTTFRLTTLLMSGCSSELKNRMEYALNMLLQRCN

Structure (SMILES) | pIC50 (PLK3) | pIC50 (PLK2) | pIC50 (PLK1)
CC[C@@H]1C(=O)N(C)c2cnc(-c3ccncc3NS(C)(=O)=O)nc2N1C1CCCC1 [Example 116, (R)—N-(4-(8-cyclopentyl-7-ethyl-5-methyl-6-oxo-5,6,7,8-tetrahydropteridin-2-yl)pyridin-3-yl)methanesulfonamide] | < 4.30 | > 6.00 | 5.00 to 6.00
CC[C@@H]1C(=O)N(C)c2cnc(-c3ccncc3NC(=O)OC)nc2N1C(C)C [Example 117, (R)-methyl 4-(7-ethyl-8-isopropyl-5-methyl-6-oxo-5,6,7,8-tetrahydropteridin-2-yl)pyridin-3-ylcarbamate] | < 4.30 | 5.00 to 6.00 | 5.00 to 6.00
CC[C@@H]1C(=O)N(C)c2cnc(-c3ccncc3NC(C)=O)nc2N1C(C)C [Example 118, (R)—N-(4-(7-ethyl-8-isopropyl-5-methyl-6-oxo-5,6,7,8-tetrahydropteridin-2-yl)pyridin-3-yl)acetamide] | < 4.30 | 5.00 to 6.00 | < 4.30
CC[C@@H]1C(=O)N(C)c2cnc(-c3ccncc3NS(C)(=O)=O)nc2N1C(C)C [Example 119, (R)—N-(4-(7-ethyl-8-isopropyl-5-methyl-6-oxo-5,6,7,8-tetrahydropteridin-2-yl)pyridin-3-yl)methanesulfonamide] | < 4.30 | 5.00 to 6.00 | < 4.30
CC[C@@H]1C(=O)N(C)c2cnc(-c3ccncc3NS(=O)(=O)c3ccccc3)nc2N1C(C)C [Example 120, (R)—N-(4-(7-ethyl-8-isopropyl-5-methyl-6-oxo-5,6,7,8-tetrahydropteridin-2-yl)pyridin-3-yl)benzenesulfonamide] | < 4.30 | 5.00 to 6.00 | 5.00 to 6.00
CC[C@@H]1C(=O)N(C)c2cnc(-c3ccncc3CNC(=O)c3ccccc3)nc2N1C1CCCC1 [Example 123, (R)—N-((4-(8-cyclopentyl-7-ethyl-5-methyl-6-oxo-5,6,7,8-tetrahydropteridin-2-yl)pyridin-3-yl)methyl)benzamide] | < 4.30 | 4.30 to 5.00 | 4.30 to 5.00
CC[C@@H]1C(=O)N(C)c2cnc(-c3ccncc3CN)nc2N1C(C)C [Example 126, (R)-2-(3-(aminomethyl)pyridin-4-yl)-7-ethyl-8-isopropyl-5-methyl-7,8-dihydropteridin-6(5H)-one] | < 4.30 | 4.30 to 5.00 | < 4.30
CC[C@@H]1C(=O)N(C)c2cnc(-c3ccncc3NS(=O)(=O)c3ccccc3)nc2N1C1CCCC1 [Example 127, (R)—N-(4-(8-cyclopentyl-7-ethyl-5-methyl-6-oxo-5,6,7,8-tetrahydropteridin-2-yl)pyridin-3-yl)benzenesulfonamide] | < 4.30 | 4.30 to 5.00 | 4.30 to 5.00
CC[C@@H]1C(=O)N(C)c2cnc(-c3ccncc3CNC(C)=O)nc2N1C(C)C [Example 129, (R)—N-((4-(7-ethyl-8-isopropyl-5-methyl-6-oxo-5,6,7,8-tetrahydropteridin-2-yl)pyridin-3-yl)methyl)acetamide] | < 4.30 | 4.30 to 5.00 | < 4.30
CC[C@@H]1C(=O)N(C)c2cnc(-c3ccncc3CNC(=O)c3ccccc3)nc2N1C(C)C [Example 130, (R)—N-((4-(7-ethyl-8-isopropyl-5-methyl-6-oxo-5,6,7,8-tetrahydropteridin-2-yl)pyridin-3-yl)methyl)benzamide] | < 4.30 | < 4.30 | < 4.30
CC[C@@H]1C(=O)N(C)c2cnc(-c3ccncc3CNS(C)(=O)=O)nc2N1C(C)C [Example 131, (R)—N-((4-(7-ethyl-8-isopropyl-5-methyl-6-oxo-5,6,7,8-tetrahydropteridin-2-yl)pyridin-3-yl)methyl)methanesulfonamide] | < 4.30 | 4.30 to 5.00 | < 4.30
CC[C@@H]1C(=O)N(C)c2cnc(-c3ccncc3CNS(=O)(=O)c3ccccc3)nc2N1C(C)C [Example 136, (R)—N-((4-(7-ethyl-8-isopropyl-5-methyl-6-oxo-5,6,7,8-tetrahydropteridin-2-yl)pyridin-3-yl)methyl)benzenesulfonamide] | < 4.30 | 5.00 to 6.00 | 4.30 to 5.00
CC[C@@H]1C(=O)N(C)c2cnc(-n3ccnc3-c3cnccn3)nc2N1C1CC1 [Example 141, (R)-8-cyclopropyl-7-ethyl-5-methyl-2-(2-(pyrazin-2-yl)-1H-imidazol-1-yl)-7,8-dihydropteridin-6(5H)-one] | < 4.30 | 5.00 to 6.00 | < 4.30

Second part, the molecule after the results:

pIC50 (PLK3) | pIC50 (PLK2) | pIC50 (PLK1) | Structure (SMILES)
4.30 to 5.00 | 4.30 to 5.00 | 4.30 to 5.00 | CC[C@@H]1C(=O)N(C)c2cnc(-c3ccncc3NC(=O)CC(C)(C)C)nc2N1C(C)C [Example 103, (R)—N-(4-(7-ethyl-8-isopropyl-5-methyl-6-oxo-5,6,7,8-tetrahydropteridin-2-yl)pyridin-3-yl)-3,3-dimethylbutanamide]
5.00 to 6.00 | > 6.00 | 5.00 to 6.00 | CC[C@@H]1C(=O)N(C)c2cnc(-c3ccncc3NC(=O)c3ccccc3)nc2N1C(C)C [Example 104, (R)—N-(4-(7-ethyl-8-isopropyl-5-methyl-6-oxo-5,6,7,8-tetrahydropteridin-2-yl)pyridin-3-yl)benzamide]
< 4.30 | 4.30 to 5.00 | 4.30 to 5.00 | CC[C@@H]1C(=O)N(C)c2cnc(-c3ccncc3CN)nc2N1C1CCCC1 [Example 105, (R)-2-(3-(aminomethyl)pyridin-4-yl)-8-cyclopentyl-7-ethyl-5-methyl-7,8-dihydropteridin-6(5H)-one]
< 4.30 | < 4.30 | < 4.30 | CC[C@@H]1C(=O)N(C)c2cnc(-c3ccncc3CNC(=O)OC(C)(C)C)nc2N1C(C)C [Example 107, (R)-tert-butyl (4-(7-ethyl-8-isopropyl-5-methyl-6-oxo-5,6,7,8-tetrahydropteridin-2-yl)pyridin-3-yl)methylcarbamate]
< 4.30 | 4.30 to 5.00 | 4.30 to 5.00 | CC[C@@H]1C(=O)N(C)c2cnc(-c3ccncc3NC(=O)CC(C)(C)C)nc2N1C1CCCC1 [Example 108, (R)—N-(4-(8-cyclopentyl-7-ethyl-5-methyl-6-oxo-5,6,7,8-tetrahydropteridin-2-yl)pyridin-3-yl)-3,3-dimethylbutanamide]
< 4.30 | 4.30 to 5.00 | 4.30 to 5.00 | CC[C@@H]1C(=O)N(C)c2cnc(-n3ccnc3N3C(=O)CCC3=O)nc2N1C1CCC1 [Example 112, (R)-1-(1-(8-cyclobutyl-7-ethyl-5-methyl-6-oxo-5,6,7,8-tetrahydropteridin-2-yl)-1H-imidazol-2-yl)pyrrolidine-2,5-dione]
5.00 to 6.00 | > 6.00 | 5.00 to 6.00 | CC[C@@H]1C(=O)N(C)c2cnc(-n3ccnc3-n3ccccc3=O)nc2N1C1CCCC1 [Example 113, (R)-8-cyclopentyl-7-ethyl-5-methyl-2-(2-(2-oxopyridin-1(2H)-yl)-1H-imidazol-1-yl)-7,8-dihydropteridin-6(5H)-one]
4.30 to 5.00 | > 6.00 | 5.00 to 6.00 | CC[C@@H]1C(=O)N(C)c2cnc(-c3ccncc3NC(=O)OC)nc2N1C1CCCC1 [Example 114, (R)-methyl 4-(8-cyclopentyl-7-ethyl-5-methyl-6-oxo-5,6,7,8-tetrahydropteridin-2-yl)pyridin-3-ylcarbamate]
4.30 to 5.00 | > 6.00 | 5.00 to 6.00 | CC[C@@H]1C(=O)N(C)c2cnc(-c3ccncc3NC(C)=O)nc2N1C1CCCC1 [Example 115, (R)—N-(4-(8-cyclopentyl-7-ethyl-5-methyl-6-oxo-5,6,7,8-tetrahydropteridin-2-yl)pyridin-3-yl)acetamide]
4.30 to 5.00 | 5.00 to 6.00 | 4.30 to 5.00 | CC[C@@H]1C(=O)N(C)c2cnc(-c3ccncc3CNC(=O)OC)nc2N1C1CCCC1 [Example 121, (R)-methyl (4-(8-cyclopentyl-7-ethyl-5-methyl-6-oxo-5,6,7,8-tetrahydropteridin-2-yl)pyridin-3-yl)methylcarbamate]
4.30 to 5.00 | 5.00 to 6.00 | 4.30 to 5.00 | CC[C@@H]1C(=O)N(C)c2cnc(-c3ccncc3CNC(C)=O)nc2N1C1CCCC1 [Example 122, (R)—N-((4-(8-cyclopentyl-7-ethyl-5-methyl-6-oxo-5,6,7,8-tetrahydropteridin-2-yl)pyridin-3-yl)methyl)acetamide]
4.30 to 5.00 | 5.00 to 6.00 | 5.00 to 6.00 | CC[C@@H]1C(=O)N(C)c2cnc(-c3ccncc3CNS(C)(=O)=O)nc2N1C1CCCC1 [Example 124, (R)—N-((4-(8-cyclopentyl-7-ethyl-5-methyl-6-oxo-5,6,7,8-tetrahydropteridin-2-yl)pyridin-3-yl)methyl)methanesulfonamide]
4.30 to 5.00 | 5.00 to 6.00 | 4.30 to 5.00 | CC[C@@H]1C(=O)N(C)c2cnc(-c3ccncc3CNS(=O)(=O)c3ccccc3)nc2N1C1CCCC1 [Example 125, (R)—N-((4-(8-cyclopentyl-7-ethyl-5-methyl-6-oxo-5,6,7,8-tetrahydropteridin-2-yl)pyridin-3-yl)methyl)benzenesulfonamide]
4.30 to 5.00 | 5.00 to 6.00 | 4.30 to 5.00 | CC[C@@H]1C(=O)N(C)c2cnc(-c3ccncc3CNC(=O)OC)nc2N1C(C)C [Example 128, (R)-methyl (4-(7-ethyl-8-isopropyl-5-methyl-6-oxo-5,6,7,8-tetrahydropteridin-2-yl)pyridin-3-yl)methylcarbamate]
4.30 to 5.00 | > 6.00 | 4.30 to 5.00 | CC[C@@H]1C(=O)N(C)c2cnc(-c3ccncc3-c3ccccc3)nc2N1C1CC1 [Example 142, (R)-8-cyclopropyl-7-ethyl-5-methyl-2-(3-phenylpyridin-4-yl)-7,8-dihydropteridin-6(5H)-one]
4.30 to 5.00 | 5.00 to 6.00 | 4.30 to 5.00 | CC[C@@H]1C(=O)N(C)c2cnc(-n3ccnc3-c3cncnc3)nc2N1C1CC1 [Example 143, (R)-8-cyclopropyl-7-ethyl-5-methyl-2-(2-(pyrimidin-5-yl)-1H-imidazol-1-yl)-7,8-dihydropteridin-6(5H)-one]
